System: KRAS-mutant PDC tumor spheroid with HUVEC/MSC, viability
Experiment: Anticancer human tumor 327498-153-R-J2-PDC patient-derived uterine carcinosarcoma cell line growth inhibition [KRAS2]
Conditions: for viability, T/C: stronger effect = lower value
Procedure, shortened: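 KRAS-mutant tumor cells were grown as spheroids with HUVEC endothelial cells and human MSCs as stroma. Targeted agents were tested alone and with KRAS pathway inhibitors. Doses started at or near clinical Cmax, or 10 microM, descending half-log.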

[1] = curve of first compound, second compound 0.1 µM
[2] = curve of first compound, second compound 0.316 µM
[3] = curve of first compound, second compound 1 µM
[4] = curve of first compound, second compound 3.16 µM
[5] = curve of first compound, second compound 10 µM
[6] = second compound 0.1 µM, first compound 0.0316 µM
[7] = second compound 0.1 µM, first compound 0.1 µM
[8] = second compound 0.1 µM, first compound 0.316 µM
[9] = second compound 0.1 µM, first compound 1 µM
[10] = second compound 0.316 µM, first compound 0.0316 µM
[11] = second compound 0.316 µM, first compound 0.1 µM
[12] = second compound 0.316 µM, first compound 0.316 µM
[13] = second compound 0.316 µM, first compound 1 µM
[14] = second compound 1 µM, first compound 0.0316 µM
[15] = second compound 1 µM, first compound 0.1 µM
[16] = second compound 1 µM, first compound 0.316 µM
[17] = second compound 1 µM, first compound 1 µM
[18] = second compound 3.16 µM, first compound 0.0316 µM
[19] = second compound 3.16 µM, first compound 0.1 µM
[20] = second compound 3.16 µM, first compound 0.316 µM
[21] = second compound 3.16 µM, first compound 1 µM
[22] = second compound 10 µM, first compound 0.0316 µM
[23] = second compound 10 µM, first compound 0.1 µM
[24] = second compound 10 µM, first compound 0.316 µM
[25] = second compound 10 µM, first compound 1 µM
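Further: spheroids exposed to agents for seven days before reading.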
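Wherever viability, T/C is given: 100% = DMSO vehicle wells so lower means fewer viable cells.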

SMILES	IC50 [1] [nM]	IC50 [2] [nM]	IC50 [3] [nM]	IC50 [4] [nM]	IC50 [5] [nM]	viability, T/C [6] [%]	viability, T/C [7] [%]	viability, T/C [8] [%]	viability, T/C [9] [%]	viability, T/C [10] [%]	viability, T/C [11] [%]	viability, T/C [12] [%]	viability, T/C [13] [%]	viability, T/C [14] [%]	viability, T/C [15] [%]	viability, T/C [16] [%]	viability, T/C [17] [%]	viability, T/C [18] [%]	viability, T/C [19] [%]	viability, T/C [20] [%]	other results
COc1cc2nccc(Oc3ccc(NC(=O)C4(C(=O)Nc5ccc(F)cc5)CC4)cc3)c2cc1OC + CC1OCC2(CCN(c3cnc(Sc4ccnc(N)c4Cl)c(N)n3)CC2)C1N	1310	659	< 31.6	< 31.6	< 31.6	70.9	76.3	61.8	60.5	53.3	53.5	46.9	49.5	38.5	35.9	32.2	31.9	29.9	31.5	23.1	viability, T/C (second compound 0.1 µM, first compound 3.16 µM): 21.6%; viability, T/C (second compound 0.1 µM, first compound 10 µM): 2.02%; viability, T/C (second compound 0.316 µM, first compound 3.16 µM): 20.5%; viability, T/C (second compound 0.316 µM, first compound 10 µM): 1.95%; viability, T/C (second compound 1 µM, first compound 3.16 µM): 10.8%; viability, T/C (second compound 1 µM, first compound 10 µM): 1.02%; viability, T/C [21]: 21.3%; viability, T/C (second compound 3.16 µM, first compound 3.16 µM): 14.4%; viability, T/C (second compound 3.16 µM, first compound 10 µM): 0.53%; viability, T/C [22]: 24.6%; viability, T/C [23]: 21.9%; viability, T/C [24]: 23.6%; viability, T/C [25]: 22.1%; viability, T/C (second compound 10 µM, first compound 3.16 µM): 9.8%; viability, T/C (second compound 10 µM, first compound 10 µM): 0.48%
CCN1CCN(Cc2ccc(Nc3ncc(F)c(-c4cc(F)c5nc(C)n(C(C)C)c5c4)n3)nc2)CC1 + CNCc1ccccc1-c1csc(C(C)Nc2nc(C)nc3cc(OC)c(OC)cc23)c1	42.9	13.1	9.26	< 3.16	< 3.16	52.9	37.5	41.7	47	41.3	35.5	39.6	43.9	36.4	34.5	36.2	21.8	0.11	0.06	0.24	viability, T/C (second compound 0.1 µM, first compound 0.00316 µM): 65.2%; viability, T/C (second compound 0.1 µM, first compound 0.01 µM): 58.8%; viability, T/C (second compound 0.316 µM, first compound 0.00316 µM): 69.4%; viability, T/C (second compound 0.316 µM, first compound 0.01 µM): 52.8%; viability, T/C (second compound 1 µM, first compound 0.00316 µM): 72.7%; viability, T/C (second compound 1 µM, first compound 0.01 µM): 46.9%; viability, T/C (second compound 3.16 µM, first compound 0.00316 µM): 0.58%; viability, T/C (second compound 3.16 µM, first compound 0.01 µM): 0.79%; viability, T/C [21]: 0.25%; viability, T/C (second compound 10 µM, first compound 0.00316 µM): 0.56%; viability, T/C (second compound 10 µM, first compound 0.01 µM): 0.69%; viability, T/C [22]: 0.91%; viability, T/C [23]: 0.68%; viability, T/C [24]: 0.69%; viability, T/C [25]: 0.69%
CC(C)n1nc(-c2ccc3oc(N)nc3c2)c2c(N)ncnc21	–	–	–	–	–	–	–	–	–	–	–	–	–	–	–	–	–	–	–	–	viability, T/C (compound 0.000316 µM): 99.8% [middle of 5 runs]; viability, T/C (compound 0.001 µM): 92.1% [middle of 5 runs]; viability, T/C (compound 0.00316 µM): 77.7% [middle of 5 runs]; viability, T/C (compound 0.01 µM): 49.9% [middle of 5 runs]; viability, T/C (compound 0.0316 µM): 16% [middle of 5 runs]; viability, T/C (compound 0.1 µM): 9.59% [middle of 5 runs]; IC50 (curve of compound): 9.11 nM [middle of 5 runs]

— PubChem BioAssay AID1963867 (Molecular Pharmacology Branch, DTP, NCI, 2024)
